{"source": "paper PMC10862732", "about": "(bioRxiv, 2024)", "system": "T7 LysY/Iq E. coli", "assay_type": "cell-based", "details": "0 – 0.5 mM IPTG, 37 °C, 12 hours, OD600"}
{"substance": "RRIRFRPPYL•••G••PRFPPPFPIPRIPRIP [Tur1a]", "values": [{"measurement": "Host growth upon induction of AMP expression with IPTG (self-depletion)", "result": "dramatically slowed growth"}]}
